Test results reported in US10757935B2, “Composition comprising a pesticide and an alkoxylated ester” (BASF SE, priority 2015, dated 2020).

Key:
[1] = tested on: powdery mildew (Blumeria graminis f. sp. hordei); assay: Curative greenhouse trial with Epoxiconazole on barley; format: in vivo; details: barley leaf segments (F and F-1) on benzimidazole agar, inoculation 2 days prior to application, Epoxiconazole 5 g/ha, adjuvant 50 ml/ha, assessment 14 DAT
Experimental: (§1) The influence of the adjuvants was tested separately in a curative and protective greenhouse trial on barley. In each case, barley was cultivated in a substrate “Frustorder Erde” for three weeks with three plants per pot. Each treatment was replicated 14 times. The adjuvant dose rate in each treatment was 50 ml/ha. The assessment of the infection rate was conducted by a trained biologist.
(§2) The adjuvants used in the trials are di-isononanyl-adipate cyclohexanedicarboxylic acid-isononanol-diester, 1,2-cyclohexanediol-di-isononate, di-isononanyl-3EO-adipate, cyclohexanedicarboxylic acid-isononanol-3EO-diester and 1,2-cyclohexanediol-6EO-di-isononate.
An Epoxiconazole SC 250 was used. Inoculation of the leaves with powdery mildew (Blumeria graminis f. sp. hordei) was done 2 days prior to application of the Epoxiconazole formulation. From the stem, 15 leaf segments were cut off with a length of 10 cm using each the flag leaf (F) and the 2nd leaf (F-1). Altogether, the leaves of each were placed on benzimidazole agar i.e. 0.5% Agar with 40 ppm benzimidazole. The concentration of Epoxiconazole for the leaf application was 5 g/ha. Assessment was done 14 days after treatment (14 DAT) of the efficacy against powdery mildew by counting the mildew pustules per leaf on a length of 7 cm.

[2] = tested on: powdery mildew (Blumeria graminis f. sp. hordei); assay: Protective greenhouse trial with Azoxystrobin on barley; format: in vivo; details: barley leaf segments (F and F-1) on agar cut 4 h after application, then inoculated, Azoxystrobin 5 g/ha, adjuvant 50 ml/ha, incubation time 10 d
Experimental: as §1, §2
4 h after application with the equivalent of 5 g/ha Azoxystrobin, leaf segments were cut off at a length of 7 cm from the stem. 15 leaves of each the F and the F-1 leaf were placed on agar. After the inoculation with powdery mildew (Blumeria graminis f. sp. hordei), the incubation time was 10 d. The assessment of the infection rate was conducted by a trained biologist.

SMILES	Powdery mildew infestation (%) [1]	Powdery mildew infestation (%) [2]
Fc1ccc([C@]2(Cn3cncn3)O[C@H]2c2ccccc2Cl)cc1 (racemic) [Epoxiconazole]	33%	
CO/C=C(/C(=O)OC)c1ccccc1Oc1cc(Oc2ccccc2C#N)ncn1 [Azoxystrobin]		36%
